Experimental data from patent US7166738B2, “Non-nucleoside reverse transcriptase inhibitors” (Roche Palo Alto LLC, priority 2004, dated 2007).

melting point	SMILES
155.4 to 157.5 °C	CCC(=O)NS(=O)(=O)c1ccc(NC(=O)Cc2ccc(Cl)c(Oc3cc(Cl)cc(C#N)c3)c2F)c(Cl)c1.[Na]
199.3 to 199.6 °C	Cl.N#Cc1cc(Cl)cc(Oc2c(Cl)ccc(CC(=O)Nc3ccc(S(=O)(=O)NC(=O)CCN)cc3Cl)c2F)c1
151.7 to 152.3 °C	COCC(=O)NS(=O)(=O)c1ccc(NC(=O)Cc2ccc(Cl)c(Oc3cc(Cl)cc(C#N)c3)c2F)c(Cl)c1.[Na]
178 to 179.5 °C	N#Cc1cc(Cl)cc(Oc2c(Cl)ccc(CC(=O)Nc3ccc(S(=O)(=O)NC(=O)CO)cc3Cl)c2F)c1.[Na]
110.3 to 110.5 °C	Cc1cc(C(=O)CN2CCOCC2)ccc1NC(=O)Cc1ccc(C)c(Oc2cc(Cl)cc(C#N)c2)c1.O=C(O)C(F)(F)F
133.1 to 140.7 °C	COCCC(=O)NS(=O)(=O)c1ccc(NC(=O)Cc2ccc(Cl)c(Oc3cc(Cl)cc(C#N)c3)c2F)c(Cl)c1.[Na]
157.6 to 159.2 °C	CCCCC(=O)NS(=O)(=O)c1ccc(NC(=O)Cc2ccc(Cl)c(Oc3cc(Cl)cc(C#N)c3)c2F)c(Cl)c1.[Na]
159.3 to 163.4 °C	CC(C)CC(=O)NS(=O)(=O)c1ccc(NC(=O)Cc2ccc(Cl)c(Oc3cc(Cl)cc(C#N)c3)c2F)c(Cl)c1.[Na]
195.3 to 197.2 °C	CCN(CC)CC(=O)NS(=O)(=O)c1ccc(NC(=O)Cc2ccc(Cl)c(Oc3cc(Cl)cc(C#N)c3)c2F)c(Cl)c1.Cl
195.6 to 197 °C	CC(C)CCC(=O)NS(=O)(=O)c1ccc(NC(=O)Cc2ccc(Cl)c(Oc3cc(Cl)cc(C#N)c3)c2F)c(Cl)c1.[Na]
223.3 to 225 °C	Cl.N#Cc1cc(Cl)cc(Oc2c(Cl)ccc(CC(=O)Nc3ccc(S(=O)(=O)NC(=O)CN4CCOCC4)cc3Cl)c2F)c1
158.8 to 162 °C	CCC(=O)NS(=O)(=O)c1ccc(NC(=O)Cc2ccc(C)c(Oc3cc(Cl)cc(C#N)c3)c2F)c(Cl)c1.[Na]
169 to 180.3 °C	Cc1cc(S(=O)(=O)NC(=O)[C@@H](N)C(C)C)ccc1NC(=O)Cc1ccc(Cl)c(Oc2cc(Cl)cc(C#N)c2)c1F.Cl
261.8 to 263.6 °C	Cc1cc(S(=O)(=O)NC(=O)c2cccnc2)ccc1NC(=O)Cc1ccc(Cl)c(Oc2cc(Cl)cc(C#N)c2)c1F.Cl
210.5 to 214 °C	N#Cc1cc(Cl)cc(Oc2cc(CC(=O)Nc3ccc(S(N)(=O)=O)cc3)ccc2Cl)c1 [Compound I-1, 2-[4-Chloro-3-(3-chloro-5-cyano-phenoxy)-phenyl]-N-(4-sulfamoyl-phenyl)-acetamide]
218 to 219 °C	N#Cc1cc(C#N)cc(Oc2cc(CC(=O)Nc3ccc(S(N)(=O)=O)cc3)ccc2Cl)c1 [Compound I-2, 2-[4-Chloro-3-(3,5-dicyano-phenoxy)-phenyl]-N-(4-sulfamoyl-phenyl)-acetamide]
190.1 to 192.2 °C	Cc1cc(OCCCS(N)(=O)=O)ccc1NC(=O)Cc1ccc(Cl)c(Oc2cc(Cl)ccc2Br)c1 [Compound I-3, 2-[3-(2-Bromo-5-chloro-phenoxy)-4-chloro-phenyl]-N-[2-methyl-4-(3-sulfamoyl-propoxy)-phenyl]-acetamide]
260.1 to 261.9 °C	NS(=O)(=O)c1ccc(NC(=O)Cc2ccc(Cl)c(Oc3cc(Cl)ccc3Br)c2)cc1 [Compound I-4, 2-[3-(2-Bromo-5-chloro-phenoxy)-4-chloro-phenyl]-N-(4-sulfamoyl-phenyl)-acetamide]
135.7 to 138.1 °C	N#Cc1cc(C#N)cc(Oc2c(Cl)ccc(CC(=O)Nc3ccc(S(N)(=O)=O)cc3)c2F)c1 [Compound I-9, 2-[4-Chloro-3-(3,5-dicyano-phenoxy)-2-fluoro-phenyl]-N-(4-sulfamoyl-phenyl)-acetamide]
247 to 249 °C	NS(=O)(=O)c1ccc(NC(=O)Cc2ccc(Cl)c(Oc3cc(Cl)cc(Cl)c3Cl)c2F)cc1 [Compound I-10, 2-[4-Chloro-2-fluoro-3-(2,3,5-trichloro-phenoxy)-phenyl]-N-(4-sulfamoyl-phenyl)-acetamide]
165.8 to 168.1 °C	Cc1ccc(CC(=O)Nc2ccc(S(N)(=O)=O)cc2)cc1Oc1cc(F)cc(C#N)c1 [Compound I-11, 2-[3-(3-Cyano-5-fluoro-phenoxy)-4-methyl-phenyl]-N-(4-sulfamoyl-phenyl)-acetamide]
131.1 to 132.2 °C	Cc1ccc(CC(=O)Nc2ccccc2Cl)cc1Oc1cc(F)cc(C#N)c1 [Compound I-12, N-(2-Chloro-phenyl)-2-[3-(3-cyano-5-fluoro-phenoxy)-4-methyl-phenyl]-acetamide]

melting point	SMILES
214 to 218 °C	N#Cc1cc(Oc2c(Cl)ccc(CC(=O)Nc3ccc(S(N)(=O)=O)cc3)c2F)cc(C(F)F)c1 [Compound I-13, 2-[4-Chloro-3-(3-cyano-5-difluoromethyl-phenoxy)-2-fluoro-phenyl]-N-(4-sulfamoyl-phenyl)-acetamide]
169.5 to 171 °C	N#Cc1cc(Oc2c(Cl)ccc(CC(=O)Nc3ccccc3Cl)c2F)cc(C(F)F)c1 [Compound I-14, 2-[4-Chloro-3-(3-cyano-5-difluoromethyl-phenoxy)-2-fluoro-phenyl]-N-(2-chloro-phenyl)-acetamide]
193.7 to 195.9 °C	CCc1ccc(CC(=O)Nc2ccc(S(N)(=O)=O)cc2)cc1Oc1cc(Cl)ccc1Br [Compound I-15, 2-[3-(2-Bromo-5-chloro-phenoxy)-4-ethyl-phenyl]-N-(4-sulfamoyl-phenyl)-acetamide]
154 to 155.5 °C	CCc1ccc(CC(=O)Nc2ccccc2Cl)cc1Oc1cc(Cl)ccc1Br [Compound I-16, 2-[3-(2-Bromo-5-chloro-phenoxy)-4-ethyl-phenyl]-N-(2-chloro-phenyl)-acetamide]
198.1 to 202.6 °C	CCc1ccc(CC(=O)Nc2ccc(S(N)(=O)=O)cc2)cc1Oc1cc(Cl)ccc1C#N [Compound I-17, 2-[3-(5-Chloro-2-cyano-phenoxy)-4-ethyl-phenyl]-N-(4-sulfamoyl-phenyl)-acetamide]
168 to 169.9 °C	CCc1ccc(CC(=O)Nc2ccccc2Cl)cc1Oc1cc(Cl)ccc1C#N [Compound I-18, 2-[3-(5-Chloro-2-cyano-phenoxy)-4-ethyl-phenyl]-N-(2-chloro-phenyl)-acetamide]
190 to 193.4 °C	CCc1ccc(CC(=O)Nc2ccc(S(N)(=O)=O)cc2)cc1Oc1cc(Cl)ccc1Cl [Compound I-19, 2-[3-(2,5-Dichloro-phenoxy)-4-ethyl-phenyl]-N-(4-sulfamoyl-phenyl)-acetamide]
222.5 to 225 °C	CCc1ccc(CC(=O)Nc2ccc(S(N)(=O)=O)cc2)cc1Oc1c(Cl)cccc1Cl [Compound I-20, 2-[3-(2,6-Dichloro-phenoxy)-4-ethyl-phenyl]-N-(4-sulfamoyl-phenyl)-acetamide]
146.3 to 147.1 °C	CCc1ccc(CC(=O)Nc2ccccc2Cl)cc1Oc1cc(Cl)ccc1Cl [Compound I-21, N-(2-Chloro-phenyl)-2-[3-(2,5-dichloro-phenoxy)-4-ethyl-phenyl]-acetamide]
216.1 to 221.3 °C	CCc1ccc(CC(=O)Nc2ccc(S(N)(=O)=O)cc2)cc1Oc1cc(Cl)cc(Br)c1 [Compound I-22, 2-[3-(3-Bromo-5-chloro-phenoxy)-4-ethyl-phenyl]-N-(4-sulfamoyl-phenyl)-acetamide]
107 to 110.5 °C	CCc1ccc(CC(=O)Nc2ccccc2Cl)cc1Oc1c(Cl)cccc1Cl [Compound I-23, N-(2-Chloro-phenyl)-2-[3-(2,6-dichloro-phenoxy)-4-ethyl-phenyl]-acetamide]
119.9 to 122.2 °C	CCc1ccc(CC(=O)Nc2ccccc2Cl)cc1Oc1cc(Cl)cc(Br)c1 [Compound I-24, 2-[3-(3-Bromo-5-chloro-phenoxy)-4-ethyl-phenyl]-N-(2-chloro-phenyl)-acetamide]
204.1 to 206.7 °C	CC(C)c1ccc(CC(=O)Nc2ccc(S(N)(=O)=O)cc2)cc1Oc1cc(Cl)ccc1Br [Compound I-26, 2-[3-(2-Bromo-5-chloro-phenoxy)-4-isopropyl-phenyl]-N-(4-sulfamoyl-phenyl)-acetamide]
142.9 to 143.6 °C	CC(C)c1ccc(CC(=O)Nc2ccccc2Cl)cc1Oc1cc(Cl)ccc1Br [Compound I-27, 2-[3-(2-Bromo-5-chloro-phenoxy)-4-isopropyl-phenyl]-N-(2-chloro-phenyl)-acetamide]
182.6 to 196.5 °C	N#Cc1cc(C#N)cc(Oc2c(Cl)ccc(CC(=O)Nc3ccccc3Cl)c2F)c1 [Compound I-28, 2-[4-Chloro-3-(3,5-dicyano-phenoxy)-2-fluoro-phenyl]-N-(2-chloro-phenyl)-acetamide]
236.9 to 239.3 °C	Cc1ccc(CC(=O)Nc2ccc(S(N)(=O)=O)cc2)cc1Oc1cc(Cl)ccc1Br [Compound I-30, 2-[3-(2-Bromo-5-chloro-phenoxy)-4-methyl-phenyl]-N-(4-sulfamoyl-phenyl)-acetamide]
200.5 to 203.5 °C	Cc1cc(S(N)(=O)=O)ccc1NC(=O)Cc1ccc(C)c(Oc2cc(Cl)ccc2Br)c1 [Compound I-31, 2-[3-(2-Bromo-5-chloro-phenoxy)-4-methyl-phenyl]-N-(2-methyl-4-sulfamoyl-phenyl)-acetamide]
248.4 to 250.8 °C	Cc1cc(S(N)(=O)=O)ccc1NC(=O)Cc1ccc(Cl)c(Oc2cc(C#N)cc(C#N)c2)c1F [Compound I-32, 2-[4-Chloro-3-(3,5-dicyano-phenoxy)-2-fluoro-phenyl]-N-(2-methyl-4-sulfamoyl-phenyl)-acetamide]
133.9 to 135.9 °C	Cc1ccc(CC(=O)Nc2ccccc2Cl)cc1Oc1cc(Cl)ccc1Br [Compound I-33, 2-[3-(2-Bromo-5-chloro-phenoxy)-4-methyl-phenyl]-N-(2-chloro-phenyl)-acetamide]
175.1 to 177.5 °C	Cc1ccc(CC(=O)Nc2ccccc2Cl)cc1Oc1cc(C#N)cc(C#N)c1 [Compound I-34, N-(2-Chloro-phenyl)-2-[3-(3,5-dicyano-phenoxy)-4-methyl-phenyl]-acetamide]
206.9 to 209.9 °C	CCc1ccc(CC(=O)Nc2ccc(S(N)(=O)=O)cc2)cc1Oc1cc(Cl)cc(Br)c1Cl [Compound I-35, 2-[3-(3-Bromo-2,5-dichloro-phenoxy)-4-ethyl-phenyl]-N-(4-sulfamoyl-phenyl)-acetamide]
